# Source: patent publication US20230172203A1, “PLANT METABOLISM PROMOTING COMPOSITIONS AND METHODS OF USE” (Panoptic Ag Solutions LLC, priority 2021, published 2023)
# Legend:
# Format in all cases: in vivo
# corn = assay: 2021 York, NE Corn Replicated Field Trial; settings: in-furrow application 8 fl. oz. per acre; V5 growth stage; vs untreated plant
# From the text: FIG. 1 is a photo from a 2021 York, NE Corn Trial. An aqueous solution of L-theanine was applied to the corn as an in-furrow application at a rate of 8 fl. oz. per acre. The pictures from the trial were taken at the V5 (5th Leaf) growth stage.
# [1] = tested on: Whale variety spinach plant seedlings; assay: 2021 Greenhouse Spinach Trial
# From the text: (§1) The base formulation used in greenhouse trials was an aqueous solution of L-theanine (20% by weight). The base formulation was further diluted with water as detailed for each trial. Whale variety spinach plant seedlings (n=6/treatment) were planted in commercial potting soil and then were transplanted to 3-gallon pots. L-theanine treatment was applied at the equivalent of 1 pint in 100 gallons of water (125 ppm) and sprayed till runoff. Two treatment applications were made to the plants approximately 14 days apart.
# [2] = tested on: Seedless watermelon plant seedlings; assay: 2021 Watermelon Trial
# From the text: as §1, with “Seedless watermelon” for “Whale variety spinach”, “(n=4/treatment)” for “(n=6/treatment)”
# Soybean plants [3] = assay: 2021 Greenhouse Soybean Trial (foliar application)
# Description: The base formulation used in greenhouse trials was an aqueous solution of L-theanine (20% by weight). The base formulation was further diluted with water as detailed for each trial. Soybean seeds (n=12/treatment) were planted in commercial potting soil in 1 gallon pots. […] The plants were grown for another 14 days then harvested.
# Soybean plants [4] = assay: 2021 Greenhouse Soybean Trial (soil application)
# Description: The base formulation used in greenhouse trials was an aqueous solution of L-theanine (20% by weight). The base formulation was further diluted with water as detailed for each trial. Soybean seeds (n=28/treatment) were planted in commercial potting soil in 1-gallon pots. Approximately 14 days after seedling emergence, an aqueous L-theanine solution was mixed into water at a rate of 0.2 mL per 1000 mL water. The resulting solution was applied to the soil of the pots at a rate of 50 mL per plant. Plants were grown for an additional 14 days then harvested.
# Dwarf sunflower = assay: 2021 Greenhouse Sunflower Trial
# From the text: The base formulation used in greenhouse trials was an aqueous solution of L-theanine (20% by weight). The base formulation was further diluted with water as detailed for each trial. Dwarf sunflower seeds (n=9/treatment) were planted in commercial potting soil in 1-gallon pots. Approximately 14 days after emergence, an L-theanine solution was applied to the foliage at the equivalent of 8 fl. oz./acre in 50 gallons of water (125 ppm) and sprayed till run off. One application was made.
# [5] = tested on: Rutgers variety tomato plant seedlings; assay: 2021 Greenhouse Tomato Trial
# From the text: as §1, with “Rutgers” for “Whale”, “tomato” for “spinach”, “3 gallon” for “3-gallon”
# Onions = assay: 2021 Pennsylvania Onion Replicated Field Trial
# Description: Onions were maintained under grower standard practices. Four replications were performed per treatment. In this trial, applications of L-theanine were performed every 14 days for a total of 4 applications.
# Soybean (Glycine max) = assay: 2021 Replicated Nebraska Soybean Field Trial
# From the text: Soybean seeds (Glycine max) were planted at a rate of 150,000 seeds per acre. The treated plot size was 5 ft×40 ft and this was replicated 4 times. A 20% aqueous L-theanine solution was applied to the foliage at 8 fl. oz./acre at the R2 (full flowering) growth stage. The trial was fertilized and maintained under grower standard practices.
# [6] = tested on: Wheat (Triticum aestivum); assay: 2022 Replicated South Dakota Spring Wheat Field Trial
# From the text: Wheat seed (Triticum aestivum) was planted at a rate of 90 lbs/acre. The treated plot size was 5 ft×40 ft and this was replicated 4 times. A 20% L-theanine solution was applied at 8 fl. oz./acre to the foliage of the wheat approximately 40 days after emergence. The trial was fertilized and maintained under grower standard practices.
# [7] = foliar spray 125 ppm till runoff, two applications ~14 days apart
# [8] = vs untreated check, 125 ppm foliar, two applications
# [9] = above the untreated check, foliar 125 ppm
# [10] = foliar, 8 fl. oz./50 gallons of water (125 ppm) till runoff, harvested 14 days later
# [11] = 0.2 mL per 1000 mL water, 50 mL per plant, harvested 14 days later
# [12] = foliar, 8 fl. oz./acre in 50 gallons of water (125 ppm), one application
# [13] = over the untreated check, 125 ppm foliar, one application
# [14] = vs untreated check, 4 applications
smiles,measurement,setting,value
CCNC(=O)CC[C@H](N)C(=O)O [L-theanine],"root biomass development and stalk girth (FIG. 1, in words)",corn,increases in root biomass development and stalk girth
same,Basal Diameter,[1]; [7],3.07 a mm
same,Leaf (count),[1]; [7],8.66 a count
same,Plant Height,[1]; [7],8.67 a in
same,increase in leaf count,[1]; [8],1
same,"increase in leaf count, percent",[1]; [8],13.1%
same,increase in plant height,[1]; [8],1.67 in
same,"increase in plant height, percent",[1]; [8],23.9%
same,Fruit/Vine (count),[2]; [7],9.50 a count
same,Vine Length,[2]; [7],51.0 a cm
same,increase in average fruit per vine,[2]; [8],4.75
same,"increase in average fruit per vine, percent",[2]; [8],100.0%
same,increase in vine development,[2]; [8],14.5 cm
same,"increase in vine development, percent",[2]; [8],39.7%
same,increase in biomass,Soybean plants [3]; [9],2.2 g
same,"increase in biomass, percent",Soybean plants [3]; [9],20.1%
same,increase in root length,Soybean plants [3]; [9],254.6 cm
same,"increase in root length, percent",Soybean plants [3]; [9],13.2%
same,increase in root tips,Soybean plants [3]; [9],1345.1
same,"increase in root tips, percent",Soybean plants [3]; [9],36.1%
same,Plant Biomass,Soybean plants [3]; [10],13.02 a g
same,Root Length,Soybean plants [3]; [10],2185.8 a cm
same,Root Tips (count),Soybean plants [3]; [10],5075.9 a count
same,Plant Biomass,Soybean plants [4]; [11],7.44 a g
same,Root Length,Soybean plants [4]; [11],1631.4 a cm
same,increase in root length,Soybean plants [4]; above the untreated check,66.4 cm
same,"increase in root length, percent",Soybean plants [4]; above the untreated check,4.2%
same,increase in soybean biomass,Soybean plants [4]; above the untreated check,1.3 g
same,"increase in soybean biomass, percent",Soybean plants [4]; above the untreated check,20.4%
same,Root Length,Dwarf sunflower; [12],1765.1 a cm
same,Root Surface Area,Dwarf sunflower; [12],491.1 a cm^2
same,Root Volume,Dwarf sunflower; [12],10.9 a cm^3
same,Plant Biomass,"Dwarf sunflower; foliar, 8 fl. oz./acre in 50 gallons of water (125 ppm), one application ~14 days after emergence",38.63 a g
same,increase in biomass,Dwarf sunflower; [13],4.4 grams
same,"increase in biomass, percent",Dwarf sunflower; [13],12.8%
same,increase in root length,Dwarf sunflower; [13],70.5 cm
same,"increase in root length, percent",Dwarf sunflower; [13],4.2%
same,increase in root surface area,Dwarf sunflower; [13],61.5 cm^2
same,"increase in root surface area, percent",Dwarf sunflower; [13],14.3%
same,increase in root volume,Dwarf sunflower; [13],2.2 cm^3
same,"increase in root volume, percent",Dwarf sunflower; [13],25.3%
same,Basal Diameter,[5]; [7],6.75 a mm
same,Fruit (count),[5]; [7],8.25 a count
same,Leaf (count),[5]; [7],5 a count
same,Plant Height,[5]; [7],21.25 a in
same,increase in basal diameter,[5]; [8],1.1 mm
same,"increase in basal diameter, percent",[5]; [8],19.5%
same,increase in fruit count,[5]; [8],3.75
same,"increase in fruit count, percent",[5]; [8],83.3%
same,increase in plant height,[5]; [8],2.5 in
same,"increase in plant height, percent",[5]; [8],13.3%
same,Fresh Onion Mass,"Onions; applications every 14 days, total of 4 applications",227 a g
same,"size and uniformity of onions (FIG. 2, in words)",Onions; treated over untreated onions,increase in size and uniformity
same,increase in biomass of the onions,Onions; [14],75.0 g
same,"increase in biomass of the onions, percent",Onions; [14],49.3%
same,Yield,"Soybean (Glycine max); 20% aqueous solution, foliar, 8 fl. oz./acre at R2 (full flowering)",84.6 a Bushels/Acre
same,increase in yield,Soybean (Glycine max); over the untreated control,6.0 bushels per acre
same,"increase in yield, percent",Soybean (Glycine max); over the untreated control,7.6%
same,Yield,"[6]; 20% solution, foliar, 8 fl. oz./acre ~40 days after emergence",53.9 a Bushels/Acre
same,increase in yield,[6]; over the untreated control,5.3 bushels/acre
same,"increase in yield, percent",[6]; over the untreated control,10.9%
